Test results reported in patent US20240009276A1, “S[…] OF IMMUNITY AGAINST RNA VIRUSES” (Health Research, Inc., priority 2020, published 2024).

Tests used:
SARS-CoV = settings: mouse, in vivo; cited from earlier work
human coronavirus OC43 = settings: human coronavirus OC43, BS-C-1 kidney cells; cited from earlier work
[1] = cited from earlier work
[2] = tested on: Human epithelial cells (SW620); format: cell-based; design: key to synergy of combination with Poly-IC / synergy of combination with rintatolimod / synergy of combination with TNFα: Yes*: *Direct support by current data (Rintatolimod and poly-IC share binding to TLR3 but not other immunostimulatory properties/recognition receptors/signaling pathways^3)

Row | Substance | antiviral/survival effect (SARS-CoV) | EC50 (human coronavirus OC43) [µg/mL] | easily achievable concentration in humans [1] [µg/mL] | induction of genes involved in SARS-Cov elimination (OAS2, Ifit-1, Mx1, RIG-I, MDA5, TLR3, other ISGs) [2] | synergy of combination with Poly-IC [2] | synergy of combination with TNFα [2] | synergy of combination with rintatolimod [2]
1 | rintatolimod [reference compound] | significant antiviral/survival effect | 0.4 | 40 | synergistic effects | – | – | –
2 | IFNα | significant antiviral/survival effect | – | – | – | Yes* | Yes* | Yes*
3 | polyinosinic:polycytidylic acid [poly-I:C, reference compound] | – | – | – | synergistic effects | – | – | –
4 | IFNγ | – | – | – | – | Yes* | Yes* | Yes*
